pIC50: −log10 of the molar value.
Columns and labels:
Leukemia cell = assay: Growth inhibition of human Leukemia cell; format: functional
CNS carcinoma cell = assay: Growth inhibition of human CNS carcinoma cell; format: functional
[1] = Growth inhibition of human Non-small cell lung cancer cell line; format: functional
[2] = Growth inhibition of human Melanoma cell; format: functional
[3] = Growth inhibition of human Colon cancer cell line; format: functional
A549 [4] = assay: Antiproliferative activity against human A549 cells assessed as reduction in cell growth by MTT assay; format: functional, cell-based
MCF7 [5] = assay: Antiproliferative activity against human MCF7 cells assessed as reduction in cell growth by MTT assay; format: functional, cell-based
HT-29 [6] = assay: Antiproliferative activity against human HT-29 cells assessed as reduction in cell growth by MTT assay; format: functional, cell-based
PANC-1 = assay: Antiproliferative activity against human PANC-1 cells by MTT assay; format: functional, cell-based
NCI-H1299 = assay: Antiproliferative activity against human NCI-H1299 cells assessed as reduction in cell growth by MTT assay; format: functional, cell-based
A549 [7] = assay: Antiproliferative activity against A549 cells assessed as reduction in cell growth by MTT assay; format: functional, cell-based; conditions: Homo sapiens
MCF7 [8] = assay: Antiproliferative activity against MCF7 cells assessed as reduction in cell growth by MTT assay; format: functional, cell-based; conditions: Homo sapiens
[9] = Antiproliferative activity against MRC5 cells assessed as reduction in cell growth by MTT assay; format: toxicity, cell-based; conditions: human
NCI-H460 = assay: Antiproliferative activity against human NCI-H460 cells assessed as reduction in cell growth by MTT assay; format: functional, cell-based
HL-60 [10] = assay: Cytotoxicity against human HL-60 cells assessed as reduction in cell growth incubated for 24 hrs by MTT assay; format: functional, cell-based; conditions: HL-60, 24 h
HCT-116 [11] = assay: Cytotoxicity against human HCT-116 cells assessed as reduction in cell viability incubated for 24 hrs by MTT assay; format: functional, cell-based; conditions: HCT-116, 24 h
[12] = Cytotoxicity against HUVEC cells; format: toxicity, cell-based; conditions: human
MCF7 [13] = assay: Cytotoxicity against human MCF7 cells assessed as reduction in cell growth incubated for 24 hrs by MTT assay; format: functional, cell-based; conditions: MCF7, 24 h
A549 [14] = assay: Cytotoxicity against human A549 cells assessed as reduction in cell growth; format: functional, cell-based
BXPC-3 = assay: Antiproliferative activity against human BXPC-3 assessed as reduction in cell growth; format: functional, cell-based
[15] = Cytotoxicity against human MCF-10A cells measured after 24 hrs by MTT assay; format: toxicity, cell-based
HepG2 [16] = assay: Cytotoxicity against human HepG2 cells after 24 hrs by MTT assay; format: functional, cell-based; conditions: HepG2, 24 h
MCF7 [17] = assay: Cytotoxicity against human MCF7 cells after 24 hrs by MTT assay; format: functional, cell-based; conditions: MCF7, 24 h
HCT-116 [18] = assay: Cytotoxicity against human HCT-116 cells after 24 hrs by MTT assay; format: functional, cell-based; conditions: HCT-116, 24 h
A549 [19] = assay: Antiproliferative activity against human A549 cells assessed as reduction in cell viability incubated for 48 hrs by CCK-8 assay; format: functional, cell-based; conditions: A549, 48 h
U-251 = assay: Antiproliferative activity against human U-251 cells assessed as reduction in cell viability incubated for 48 hrs by CCK-8 assay; format: functional, cell-based; conditions: U-251, 48 h
HepG2 [20] = assay: Antiproliferative activity against human HepG2 cells assessed as reduction in cell viability incubated for 48 hrs by CCK-8 assay; format: functional, cell-based; conditions: HepG2, 48 h
HT-29 [21] = assay: Anticancer activity against human HT-29 cells; format: functional, cell-based
DLD-1 = assay: Anticancer activity against human DLD-1 cells; format: functional, cell-based
RKO = assay: Anticancer activity against human RKO cells; format: functional, cell-based
SW480 = assay: Anticancer activity against human SW480 cells; format: functional, cell-based
[22] = Inhibition of TK (unknown origin); parameters: species or system Homo sapiens
HCT-116 [23] = assay: Anticancer activity against human HCT-116 cells; format: functional, cell-based
COLO 320 = assay: Anticancer activity against human COLO 320 cells; format: functional, cell-based
SNU-C1 = assay: Anticancer activity against human SNU-C1 cells; format: functional, cell-based
SW837 = assay: Anticancer activity against human SW837 cells; format: functional, cell-based
Tubulin = assay: Inhibition of tubulin polymerization (unknown origin); format: protein-complex assay, Homo sapiens
HL-60 [24] = assay: Antiproliferative activity against human HL-60 cells assessed as reduction in cell viability incubated for 72 hrs by MTT assay; format: functional, cell-based; conditions: HL-60, 72 h
A549 [25] = assay: Antiproliferative activity against human A549 cells assessed as reduction in cell viability incubated for 72 hrs by MTT assay; format: functional, cell-based; conditions: A549, 72 h
MCF7 [26] = assay: Antiproliferative activity against human MCF7 cells assessed as reduction in cell viability incubated for 72 hrs by MTT assay; format: functional, cell-based; conditions: MCF7, 72 h
HT-29 [27] = assay: Antiproliferative activity against human HT-29 cells assessed as reduction in cell viability incubated for 72 hrs by MTT assay; format: functional, cell-based; conditions: HT-29, 72 h
HeLa = assay: Antiproliferative activity against human HeLa cells assessed as reduction in cell viability incubated for 72 hrs by MTT assay; format: functional, cell-based
Jurkat = assay: Antiproliferative activity against human Jurkat cells assessed as reduction in cell viability incubated for 72 hrs by MTT assay; format: functional, cell-based
RS4-11 = assay: Antiproliferative activity against human RS4-11 cells assessed as reduction in cell viability incubated for 72 hrs by MTT assay; format: functional, cell-based; conditions: RS4-11, 72 h
HepG2 [28] = assay: Anticancer activity against human HepG2 cells; format: functional, cell-based
DU-145 = assay: Anticancer activity against human DU-145 cells; format: functional, cell-based
PC-3 = assay: Anticancer activity against human PC-3 cells; format: functional, cell-based
MCF7 [29] = assay: Anticancer activity against human MCF7 cells; format: functional, cell-based
A549 [30] = assay: Antiproliferative activity against human A549 cells assessed as reduction in cell growth incubated for 24 hrs by MTT assay; format: functional, cell-based; conditions: A549, 24 h
A549 [31] = assay: Cytotoxicity against human A549 cells; format: functional, cell-based
HepG2 [32] = assay: Antiproliferative activity against human HepG2 cells assessed as reduction in cell growth incubated for 24 hrs by MTT assay; format: functional, cell-based; conditions: HepG2, 24 h
[33] = Antiproliferative activity against human MCF7/MX cells assessed as reduction in cell growth incubated for 24 hrs by MTT assay; format: functional, cell-based
MCF7 [34] = assay: Antiproliferative activity against human MCF7 cells assessed as reduction in cell growth incubated for 24 hrs by MTT assay; format: functional, cell-based; conditions: MCF7, 24 h

Compound: Oc1ccc(/C=C/c2cc(O)cc(O)c2)cc1 [RESVERATROL]
- GI50 (Leukemia cell): 15900 nM
- GI50 (CNS carcinoma cell): 70800 nM
- GI50 [1]: 61700 nM
- GI50 [2]: 64600 nM
- GI50 [3]: 56000 nM

Compound: Oc1ccc(-n2cnc(-c3cc(O)cc(O)c3)c2)cc1
- GI50 (Leukemia cell): 4100 nM
- GI50 (CNS carcinoma cell): 11500 nM
- GI50 [1]: 28800 nM
- GI50 [2]: 12900 nM
- GI50 [3]: 11500 nM

Compound: COc1ccccc1-c1nc(-c2ccccc2)c(-c2ccccc2)n1-c1ccc(S(N)(=O)=O)cc1
- pIC50 (A549 [4]): 5.62
- pIC50 (MCF7 [5]): 5.68
- pIC50 (HT-29 [6]): 5.62
- pIC50 (PANC-1): 5.66

Compound: CN(C)CCCOc1ccc(-c2nc(-c3ccc(Br)o3)[nH]c2-c2ccc(OCCCN(C)C)cc2)cc1
- pIC50 (NCI-H1299): > 7.00
- pIC50 (A549 [7]): 5.24
- pIC50 (MCF7 [8]): 5.16
- pIC50 [9]: 5.07
- pIC50 (NCI-H460): 5.38

Compound: S=c1[nH]c(-n2nnc3ccccc32)cn1-c1ccc(Cl)cc1Cl
- pIC50 (HL-60 [10]): 6.40
- pIC50 (HCT-116 [11]): 6.62
- pIC50 [12]: 4.87
- pIC50 (MCF7 [13]): 6.24

Compound: COc1ccc2cc([C@H](C)C3=NC(Cc4ccccc4)C(=O)N3/N=C/c3ccc(N(C)C)cc3)ccc2c1 (stereo partly specified)
- pIC50 (A549 [14]): 5.03
- pIC50 (BXPC-3): 4.74

Compound: COc1ccc(-c2c[nH]c(=S)n2/N=C/c2ccccc2O)cc1
- IC50 at 24 h [15]: 27800 nM
- pIC50 (HepG2 [16]): 5.89
- pIC50 (MCF7 [17]): 5.97
- pIC50 (HCT-116 [18]): 5.40

Compound: CN(C)c1ccc(/C=C/c2ncc([N+](=O)[O-])n2CCOC(=O)c2nccc3ccccc23)cc1
- pIC50 (A549 [19]): 6.37
- pIC50 (U-251): 6.85
- pIC50 (HepG2 [20]): 6.77

Compound: COc1cccc2c1C=C(c1ncc(-c3ccc(OCc4ccccc4)cc3)[nH]1)CO2
- pIC50 (HT-29 [21]): 6.43
- pIC50 (DLD-1): 6.43
- pIC50 (RKO): 6.43
- pIC50 (SW480): 6.43
- pIC50 [22]: 5.33
- pIC50 (HCT-116 [23]): 6.43
- pIC50 (COLO 320): 6.43
- pIC50 (SNU-C1): 6.43
- pIC50 (SW837): 6.43

Compound: CCOc1ccc(-c2nccn2-c2cc(OC)c(OC)c(OC)c2)cc1Cl
- pIC50 (Tubulin): 6.06
- pIC50 (HL-60 [24]): 8.74
- pIC50 (A549 [25]): 9.24
- pIC50 (MCF7 [26]): 9.15
- pIC50 (HT-29 [27]): 9.40
- pIC50 (HeLa): 8.42
- pIC50 (Jurkat): 9.05
- pIC50 (RS4-11): 8.92

Compound: Cc1nc([N+](=O)[O-])c(N2CCN(CCCBr)CC2)n1Cc1ccccc1
- pIC50 (HepG2 [28]): 4.49
- pIC50 (DU-145): 4.27
- pIC50 (PC-3): 4.31
- pIC50 (MCF7 [29]): 4.34

Compound: COc1ccc(/C=C\c2cc(OC)c(OC)c(OC)c2)cc1O [COMBRETASTATIN A4]
- pIC50 (HL-60 [10]): 6.11
- pIC50 (HCT-116 [11]): 5.58
- pIC50 [12]: 3.92
- pIC50 (A549 [30]): 6.07
- pIC50 (A549 [25]): 5.51
- pIC50 (A549 [31]): 7.32
- pIC50 (HepG2 [32]): 6.20
- pIC50 (MCF7 [26]): 8.30
- pIC50 [33]: 5.83
- pIC50 (HT-29 [27]): 6.74
- pIC50 (MCF7 [13]): 5.45
- pIC50 (Jurkat): 9.10
- pIC50 (MCF7 [34]): 6.37
- pIC50 (RS4-11): 6.43

Compound: NS(=O)(=O)c1ccc(-n2c(-c3ccccc3Br)nc(-c3ccccc3)c2-c2ccccc2)cc1
- pIC50 (A549 [4]): 5.55
- pIC50 (MCF7 [5]): 5.57
- pIC50 (HT-29 [6]): 5.51
- pIC50 (PANC-1): 5.60

Reference: ChEMBL document CHEMBL6074649, “An insight into recent developments in imidazole based heterocyclic compounds as anticancer agents: Synthesis, SARs, and mechanism of actions” (Eur J Med Chem, 2024)
